# Reference: patent publication US20060078622A1, “Pharmaceutical formulations containing microparticles or nanoparticles of a delivery agent” (priority 2004, published 2006)
# System: Glucose
# Experiment: Glucose after subcutaneous (SC) administration of insulin
# Type: in vivo, rat
substance,measurement,setting,value
Insulin: Recombinant human zinc insulin,Glucose,"study 3, 0.05 mg/kg, time 0",83 mg/dL
same,Glucose,"study 3, 0.05 mg/kg, time 15",66 mg/dL
same,Glucose,"study 3, 0.05 mg/kg, time 30",60 mg/dL
same,Glucose,"study 3, 0.05 mg/kg, time 45",61 mg/dL
same,Glucose,"study 3, 0.05 mg/kg, time 60",73 mg/dL
same,Glucose,"study 3, 0.05 mg/kg, time 120",98 mg/dL
same,Glucose,"study 3, 0.05 mg/kg, time 180",105 mg/dL
same,Glucose,"study 4, 0.05 mg/kg, time 0",73 mg/dL
same,Glucose,"study 4, 0.05 mg/kg, time 15",66 mg/dL
same,Glucose,"study 4, 0.05 mg/kg, time 30",59 mg/dL
same,Glucose,"study 4, 0.05 mg/kg, time 45",64 mg/dL
same,Glucose,"study 4, 0.05 mg/kg, time 60",72 mg/dL
same,Glucose,"study 4, 0.05 mg/kg, time 90",88 mg/dL
same,Glucose,"study 4, 0.05 mg/kg, time 120",110 mg/dL
same,Glucose,"study 5, 0.05 mg/kg, time 0",60 mg/dL
same,Glucose,"study 5, 0.05 mg/kg, time 15",42 mg/dL
same,Glucose,"study 5, 0.05 mg/kg, time 30",38 mg/dL
same,Glucose,"study 5, 0.05 mg/kg, time 45",42 mg/dL
same,Glucose,"study 5, 0.05 mg/kg, time 60",48 mg/dL
same,Glucose,"study 5, 0.05 mg/kg, time 90",52 mg/dL
same,Glucose,"study 5, 0.05 mg/kg, time 120",66 mg/dL
same,Glucose,"study 6, 0.05 mg/kg, time 0",68 mg/dL
same,Glucose,"study 6, 0.05 mg/kg, time 15",40 mg/dL
same,Glucose,"study 6, 0.05 mg/kg, time 30",39 mg/dL
same,Glucose,"study 6, 0.05 mg/kg, time 45",36 mg/dL
same,Glucose,"study 6, 0.05 mg/kg, time 60",32 mg/dL
same,Glucose,"study 6, 0.05 mg/kg, time 90",35 mg/dL
same,Glucose,"study 6, 0.05 mg/kg, time 120",39 mg/dL
same,Glucose,"study 7, 0.05 mg/kg, time 0",65 mg/dL
same,Glucose,"study 7, 0.05 mg/kg, time 15",45 mg/dL
same,Glucose,"study 7, 0.05 mg/kg, time 30",39 mg/dL
same,Glucose,"study 7, 0.05 mg/kg, time 45",40 mg/dL
same,Glucose,"study 7, 0.05 mg/kg, time 60",42 mg/dL
same,Glucose,"study 7, 0.05 mg/kg, time 90",42 mg/dL
same,Glucose,"study 7, 0.05 mg/kg, time 120",50 mg/dL
same,Glucose,"study 8, 0.05 mg/kg, time 0",70 mg/dL
same,Glucose,"study 8, 0.05 mg/kg, time 15",59 mg/dL
same,Glucose,"study 8, 0.05 mg/kg, time 30",64 mg/dL
same,Glucose,"study 8, 0.05 mg/kg, time 45",69 mg/dL
same,Glucose,"study 8, 0.05 mg/kg, time 60",73 mg/dL
same,Glucose,"study 8, 0.05 mg/kg, time 90",89 mg/dL
same,Glucose,"study 8, 0.05 mg/kg, time 120",106 mg/dL
